Data published in article PMC10645073, “Interaction of gallium, indium and vanadyl diacetylcurcumin complexes with lysozyme: mechanistic aspects and evaluation of antiamyloidogenic activity” (Royal Society Open Science, 2023).
pIC50: −log10 of the molar value.

Columns and labels:
mouse lymphoma cells = test system: mouse lymphoma cells; design: method as in PMID 16171869; details: read-out: IC50 cytotoxicity; cited from earlier work
[1] = molecular target: T1, hen egg white lysozyme (HEWL) (Gallus gallus, UniProt P00698); experiment: Intrinsic fluorescence quenching of HEWL (Stern-Volmer, double logarithmic and van't Hoff analysis); type: binding; details: for KSV (Stern-Volmer quenching constant): HEWL 3 µM; for kq (bimolecular quenching rate constant): kq = KSV/τ0, τ0 10^−8 s; for blue shift of HEWL emission maximum on quenching: excitation 295 nm, emission maximum 345 nm; for fluorescence quenching mechanism: from KSV versus temperature and kq; for main forces / modes of interaction stabilizing the bioconjugate: from signs of ΔH^0 and ΔS^0; for binding constant, order of magnitude: summary of table 1; for ΔH^0 (enthalpy change of binding) / ΔS^0 (entropy change of binding): van't Hoff plot over 293–308 K
T1 construct: whose 129 amino acid residues are linked together by four disulfide bridges to form a single polypeptide chain; purchased Sigma-Aldrich L6876; host or cells: hen egg white (natural source, per the protein's name)
T1 sequence (P00698 19-147): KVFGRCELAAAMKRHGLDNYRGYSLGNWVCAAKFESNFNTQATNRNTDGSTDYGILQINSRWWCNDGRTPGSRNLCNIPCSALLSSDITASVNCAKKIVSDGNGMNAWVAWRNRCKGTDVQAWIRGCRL
Procedure: The intrinsic fluorescence spectra of HEWL (3 µM) in the absence and presence of Ga(DAC)3, In(DAC)3 and VO(DAC)2 complexes were collected using a Varian Cary Eclipse fluorescence spectrophotometer equipped with a 10 mm quartz cell by adjusting the excitation wavelength to 295 nm and setting the width of both excitation and emission slits at 5 nm. After adding the mentioned concentrations of the metal complexes of diacetylcurcumin to HEWL solution, the samples were scanned in the wavelength range of 300–500 nm. Corrections were made for the inner filter effect on the fluorescence spectra according to the following equation: Fcor=Fobs×10^(Aex+Aem)/2, where Fcor is corrected fluorescence intensity, Fobs is the observed (uncorrected) fluorescence intensity, Aex is the absorbance at the fluorescence excitation wavelength and Aem is the absorbance at the selected fluorescence emission wavelength.
The fluorescence quenching process of HEWL in the presence of three metal complexes of diacetylcurcumin can be quantified according to the well-known Stern-Volmer equation:3.1 F0/F=1+KSV[Q]=1+kqτ0[Q],
where F0 and F represent the intrinsic emission intensities of HEWL fluorophores, respectively, in the absence and presence of the metal complexes of diacetylcurcumin, and [Q] is the molar concentration of quencher. KSV, kq and τ0 denote the Stern-Volmer quenching constant, bimolecular quenching rate constant, and the average lifetime of fluorophore without quencher, respectively. The value of KSV, as a parameter of the sensitivity of the fluorophore to a quencher, can be estimated from the slope of the linear plot of F0/F as a function of [Q] (figure 2d,e,f; electronic supplementary material, figure S1). To obtain more accurate quantification of fluorescence data, the total area of the emission fluorescence peaks (S0 and S) was applied instead of the emission fluorescence intensities (F0 and F). The fluorescence quenching phenomenon can be generally divided into two distinct classes: static quenching and dynamic quenching. Owing to the reciprocal and direct correlations between the KSV parameter and temperature, respectively, for static and dynamic quenching, the observed trend in the KSV value versus temperature can be used to distinguish these mechanisms from each other. In dynamic quenching, an increase in temperature leads to faster diffusion of molecules by which weakly bound nonfluorescent complexes are further dissociated, and the value of KSV increases. From the data recorded in table 1, it can be seen that the KSV value of HEWL/Ga(DAC)3 and HEWL/In(DAC)3 systems decreases as temperature increases, while it increases with increasing temperature for the HEWL/VO(DAC)2 system. […] Considering a lifetime value of 10^−8 s for the native fluorophores, [27] the equation kq = KSV/τ0 gives the kq values greater than the diffusion-limited quenching value of 2.0 × 10 ^+ 10 M^−1 s^−1 for all systems.
Assuming that all the binding sites of HEWL are identical and independent and an equilibrium interaction is established between HEWL and each of the metal complexes of diacetylcurcumin, the fluorescence quenching process can be further analysed by the following double logarithmic equation:3.2 log(F0−F/F)=logKb+nlog[Q], where Kb and n represent the binding constant and number of binding sites on each HEWL molecule, respectively. Plotting log[(F0 − F)/F] versus log[Q] produces a straight line whose slope and intercept can be used respectively to estimate the values of n and Kb (electronic supplementary material, figures S2A, S2B, S2C and S3). […] In other words, the resulting bioconjugates are the product of the interaction between HEWL and the metal complexes of diacetylcurcumin with a 1 : 1 stoichiometry. […]

HEWL amyloid fibrils = molecular target: T2, HEWL amyloid fibrils (Gallus gallus, UniProt P00698); experiment: Thioflavin T fluorescence assay of HEWL amyloid fibrillation; type: biochemical, hen; details: HEWL 70 µM, complex 10 µM; for effect on amyloid fibrillation of HEWL (ThT fluorescence): pH 2.0, 140 min incubation
T2 construct: whose 129 amino acid residues are linked together by four disulfide bridges to form a single polypeptide chain; purchased Sigma-Aldrich L6876; host or cells: hen egg white (natural source, per the protein's name)
T2 sequence (P00698 19-147): as above
Procedure: To prepare HEWL amyloid fibrils, a solution of the protein (5 ml, 70 µM) was prepared in 100 mM PBS, and the pH adjusted to 2.0 using hydrochloric acid. The solution was then incubated in a shaker incubator bath at 450 rpm and 58°C for 140 min. To investigate the effect of the diacetylcurcumin-based metal complexes on HEWL amyloid fibrillation, three separate samples, each containing HEWL (70 µM) and one of the metal complexes of diacetylcurcumin (10 µM), were prepared and incubated under the above conditions.
For ThT assay, a 17 µl volume of the incubated HEWL (70 µM) samples was added to 983 µl of ThT solution for the final HEWL and ThT concentrations of 1.2 µM and 20 µM, respectively. ThT spectra containing the incubated HEWL/metal complexes were recorded 5 min after recording the spectrum of ThT solution as control solution. All spectra were recorded using a Varian Cary Eclipse fluorescence spectrophotometer at 25°C. ThT solution was excited with a 440 nm wavelength and emission fluorescence spectra were recorded in the wavelength range of 450–600 nm.
Enhancement of ThT fluorescence intensity upon its rapid and strong binding to the cross β-sheet structure of amyloid fibrils is important evidence to confirm the amyloid fibril formation of proteins. The inhibitory activities of Ga(DAC)3, In(DAC)3 and VO(DAC)2 complexes on the amyloid fibrillation process of HEWL were explored by ThT fluorescence assay over 140 min period of incubation at pH 2.0. The kinetics of the fibrillation process in the absence and presence of the considered complexes is depicted in figure 4a.
To estimate the lag time and apparent rate constant for growth of fibrils, the following equation was employed on the ThT fluorescence data: F=Fmin+Fmax/1+e^−(t−t0/τ),
where F is the fluorescence intensity in t, Fmin and Fmax are fluorescence intensities in initial time and saturation phase, respectively, t is incubation time and t0 is required time to get 50% of maximal fluorescence intensity. The apparent rate constant, kapp, is given by 1/τ and the lag time is approximated by t0 − 2τ. […]

Compound	pIC50 (mouse lymphoma cells)	n (number of binding sites on each HEWL molecule) ([1]; T 293 K)	ΔG^0 (Gibbs free energy change of binding) ([1]; T 293 K)	KSV (Stern-Volmer quenching constant) ([1]; T 293 K)	kq (bimolecular quenching rate constant) ([1]; T 293 K)	n (number of binding sites on each HEWL molecule) ([1]; T 303 K)	ΔG^0 (Gibbs free energy change of binding) ([1]; T 303 K)	KSV (Stern-Volmer quenching constant) ([1]; T 303 K)	kq (bimolecular quenching rate constant) ([1]; T 303 K)	n (number of binding sites on each HEWL molecule) ([1]; T 308 K)	ΔG^0 (Gibbs free energy change of binding) ([1]; T 308 K)	KSV (Stern-Volmer quenching constant) ([1]; T 308 K)	kq (bimolecular quenching rate constant) ([1]; T 308 K)	blue shift of HEWL emission maximum on quenching [1]	fluorescence quenching mechanism [1]	main forces / modes of interaction stabilizing the bioconjugate [1]	binding constant, order of magnitude [1]	ΔH^0 (enthalpy change of binding) [1]	ΔS^0 (entropy change of binding) [1]	effect on amyloid fibrillation of HEWL (ThT fluorescence) (HEWL amyloid fibrils)	other results
COc1cc(C=CC(=O)C=C([O-])C=Cc2ccc(OC(C)=O)c(OC)c2)ccc1OC(C)=O.COc1cc(C=CC(=O)C=C([O-])C=Cc2ccc(OC(C)=O)c(OC)c2)ccc1OC(C)=O.COc1cc(C=CC(=O)C=C([O-])C=Cc2ccc(OC(C)=O)c(OC)c2)ccc1OC(C)=O.[In+3] [In(DAC)3, indium diacetylcurcumin]	4.60 to 4.70	(1.26 ± 0.01)	-8.368 ± 0.0024 kcal/mol	(0.10 ± 0.00) × 10^+6 M^−1	(0.10 ± 0.00) × 10^+14 M^−1 s^−1	(1.25 ± 0.04)	-8.65 ± 0.0024 kcal/mol	(9.61 ± 0.10) × 10^+5 M^−1	(9.61 ± 0.10) × 10^+13 M^−1 s^−1	(1.25 ± 0.02)	-8.788 ± 0.0024 kcal/mol	(1.04 ± 0.02) × 10^+5 M^−1	(1.04 ± 0.02) × 10^+13 M^−1 s^−1	4 nm	static mechanism	electrostatic interactions	10^+6 M^−1	-0.148 ± 0 kcal/mol	117.38 ± 0.01 J mol^−1 K^−1	considerable delaying effect	effect on lag time and t0 of fibrillation (HEWL amyloid fibrils; pH 2.0): significant increase in the lag time and t0
COc1cc(/C=C/C(=O)C=C([O-])/C=C/c2ccc(OC(C)=O)c(OC)c2)ccc1OC(C)=O.COc1cc(/C=C/C(=O)C=C([O-])/C=C/c2ccc(OC(C)=O)c(OC)c2)ccc1OC(C)=O.[O]=[V+2] [VO(DAC)2, vanadyl diacetylcurcumin]	5.00 to 5.15	(1.35 ± 0.04)	-8.217 ± 0.858 kcal/mol	(2.70 ± 0.02) × 10^+4 M^−1	(2.70 ± 0.02) × 10^+12 M^−1 s^−1	(0.93 ± 0.02)	-5.767 ± 0.858 kcal/mol	(2.78 ± 0.03) × 10^+4 M^−1	(2.78 ± 0.03) × 10^+12 M^−1 s^−1	(0.75 ± 0.04)	-4.543 ± 0.858 kcal/mol	(2.80 ± 0.02) × 10^+4 M^−1	(2.80 ± 0.02) × 10^+12 M^−1 s^−1	2 nm	dual mechanism, including both static and dynamic quenching	van der Waals interactions and hydrogen bonds	10^+6 to 10^+3 M^−1	-79.988 ± 0.246 kcal/mol	−1024.87 ± 3.44 J mol^−1 K^−1	highest inhibitory effect	n (number of binding sites on each HEWL molecule) ([1]; T 298 K): (1.15 ± 0.03); ΔG^0 (Gibbs free energy change of binding) ([1]; T 298 K): -6.993 ± 0.858 kcal/mol; KSV (Stern-Volmer quenching constant) ([1]; T 298 K): (2.70 ± 0.04) × 10^+4 M^−1; kq (bimolecular quenching rate constant) ([1]; T 298 K): (2.70 ± 0.04) × 10^+12 M^−1 s^−1
